Source: patent publication US9909086B2, “Green glycine betaine derivative compounds and compositions containing same” (priority 2012, dated 2018)

Columns and labels:
Surface tension = type: physicochemical; settings: pure
Description: Surface properties of betainyl amino alkyl(ene) methane sulfonates and alkyl(ene) betainate methane sulfonate surfactants are set forth below in Table 5. […] Comparative examples are provided by the GLUCOPON surfactants (commercially available from BASF, formerly known as Cognis) which are alkyl polyglucosides having a carbon length as indicated.

Foamability = type: physicochemical; settings: concentration at CMC, flow rate 14 l/min
Description: The surfactants of the invention also have foaming ability. This foaming ability is able to be effectively manipulated, i.e., foaming density increased, based on hydrocarbon chain length.

[1] = Interfacial tension, emulsifying sunflower oil in water; type: physicochemical; settings: purified
[2] = Wetting properties, contact angles on treated substrates; type: physicochemical
[3] = Viscosity (thickening and gelling); type: physicochemical; settings: aqueous solution
Description: Table 15 below illustrates the thickening of GB stearic amine aqueous solution as a function of concentration and time.
The examples of Table 15 are compounds present in water alone and, thus, the viscosity continues to change. After a certain point, the viscosity will plateau and not change anymore. If the surfactant is provided at a predetermined concentration, the desired viscosity will be reached right away and not continue to increase due to the stability provided. Thus, generally, as the surfactant concentration increases, so does the initial viscosity. Also over a period of time, the viscosity increases. The viscosity can be controlled to terminate the viscosity increase, i.e., achieve a pre-determined viscosity, by adding salts to the composition. Preferred salts are sodium chloride, potassium chloride, magnesium, chloride, and lithium chloride. Another feature of the invention is the ability to combine GB surfactants with natural polysaccharides to form gel and pseudoplastic viscous liquids or gels. Examples of polysaccharides are agar, carregenan, natural gum, pectin, gelatin, starch, cellulose derivatives, cellulose derived from wood pulp fiber, lignin, etc. […]

[4] = aqueous solution; 20 seconds contact time; pure
[5] = surfactant concentration 1 % w/w
[6] = surfactant concentration 2 % w/w
[7] = surfactant concentration 3 % w/w
[8] = surfactant concentration 4 % w/w
[9] = surfactant concentration 5 % w/w
[10] = surfactant concentration 6 % w/w

Compound	Surface Tension @ CMC (Surface tension)	IFT [1]	Contact angle on treated substrate, Enamel Tiles ([2]; surfactant conc. 1 % (w/w))	Contact angle on treated substrate, Glass ([2]; surfactant conc. 1 % (w/w))	Contact angle on treated substrate, Kitchen Soil ([2]; surfactant conc. 1 % (w/w))	Contact angle on treated substrate, Soap Scum ([2]; surfactant conc. 1 % (w/w))	Contact angle on treated substrate, Enamel Tiles ([2]; surfactant conc. 3 % (w/w))	Contact angle on treated substrate, Glass ([2]; surfactant conc. 3 % (w/w))	Contact angle on treated substrate, Kitchen Soil ([2]; surfactant conc. 3 % (w/w))	Contact angle on treated substrate, Soap Scum ([2]; surfactant conc. 3 % (w/w))	further results
CCCCCCCCCCCCNC(=O)C[N+](C)(C)C.CS(=O)(=O)[O-] [GB Lauric amide, Betainyl amino dodecane methane sulfonate]	38 mN/m										
CCCCCCCCCCCCCCNC(=O)C[N+](C)(C)C.CS(=O)(=O)[O-] [GB Myristic amide, Betainyl amino tetradecane methane sulfonate]	38 mN/m										
CCCCCCCC/C=C\CCCCCCCCNC(=O)C[N+](C)(C)C.CS(=O)(=O)[O-] [GB Oleic amide C18:1) pure, (Z)-betainyl amino octadec-9-ene methane sulfonate, pure]											Foam density (Foamability): 18 g/L; Time t: the time to fill 2 liters (Foamability): 85 s
CCCCCCCC/C=C\CCCCCCCCNC(=O)C[N+](C)(C)C.CS(=O)(=O)[O-] [GB Oleic amide, (Z)-betainyl amino octadec-9-ene methane sulfonate]	36 mN/m	5.5 mN/m	27.6 °	22.6 °	46.4 °	31.1 °	26.8 °	18.8 °	38.1 °	31.3 °	
CCCCCCCCCCCCCCCCNC(=O)C[N+](C)(C)C.CS(=O)(=O)[O-] [GB Palmitic amide, Betainyl amino hexadecane methane sulfonate]	37 mN/m										
CCCCCCCCCCCCCCCCCCNC(=O)C[N+](C)(C)C.CS(=O)(=O)[O-] [GB Stearic amide, Betainyl amino octadecane methane sulfonate]	39 mN/m	5.2 mN/m	35.4 °	23.1 °	39.7 °	31.6 °	27.1 °	19.4 °	34.6 °	34.3 °	Initial Viscosity [3, 5]: 120 cP; Viscosity after 15 days [3, 5]: 160 cP; Initial Viscosity [3, 6]: 160 cP; Viscosity after 15 days [3, 6]: 639 cP; Initial Viscosity [3, 7]: 160 cP; Viscosity after 15 days [3, 7]: 807 cP; Initial Viscosity [3, 8]: 2259 cP; Viscosity after 15 days [3, 8]: 3626 cP; Initial Viscosity [3, 9]: 3039 cP; Viscosity after 15 days [3, 9]: 6079 cP; Initial Viscosity [3, 10]: 5279 cP; Viscosity after 15 days [3, 10]: 8851 cP; Bathroom Soap Scum Solubilized [4]: 35%
